Key:
[1] = tested on: T0 corn; assay: Postemergence herbicide tolerance in dgt-14 transformed T0 corn; format: in vivo, Zea mays; details: example written in present tense
Protocol: T0 events are allowed to acclimate in the greenhouse and are grown until two to four new, normal looking leaves emerge from the whorl (i.e., plants that transition from tissue culture to greenhouse growing conditions). Plants are grown at 27° C. under 16 hour light:8 hour dark conditions in the greenhouse. The plants are then treated with commercial formulations of Durango DMA™ (containing the herbicide glyphosate) with the addition of 2% w/v ammonium-sulfate. Herbicide applications are made with a track sprayer at a spray volume of 187 L/ha, 50-cm spray height. T0 plants are sprayed with a range of glyphosate from 280-4480 g ae/ha glyphosate, which is capable of significant injury to untransformed corn lines. A lethal dose is defined as the rate that causes >95% injury to the B104 inbred.
Selected T0 plants are selfed or backcrossed for further characterization in the next generation. Additional experiments include a 100 plant progeny test which is conducted on chosen dgt-14 lines containing the T1 plants. All plants are sprayed with 140-1120 g ae/ha glufosinate or 105-1680 g ae/ha glyphosate as previously described. […] At fourteen DAT, resistant and sensitive plants are counted to determine the percentage of lines that segregated as a single locus, dominant Mendelian trait (3R:1S) as determined by Chi square analysis. […]

[2] = target: bacterial EPSP synthase DGT-11 v6, native (GENBANK YP_989551.1), SEQ ID NO:5 (Bartonella bacilliformis, UniProt A0ABN0IFN8); assay: In vitro kinetic assay (inorganic phosphate production, malachite green)
Protocol: The synthesized genes were cloned into the pET28 expression vector.
Recombinant DGT proteins were overexpressed in Rosetta2™ (DE3) cells (Novagen, Madison, Wis.) from the constructs described above. A single colony was used to inoculate 50 mL starter cultures of LB containing chloramphenicol (25 μg/mL) and kanamycin (50 μg/mL) which were cultivated overnight at 37° C. The overnight cultures were used to inoculate 1 L of LB containing chloramphenicol (25 μg/mL) and kanamycin (50 μg/mL). The cultures were grown at 37° C. to an O.D.600=0.6 then placed in an ice water bath for 10 minutes. Expression of the target proteins was achieved by addition of IPTG to a final concentration of 500 μM. Induction was allowed to proceed overnight at 20° C. followed by harvesting via centrifugation at 8,000 rpm for 20 minutes. The cell pellets were stored at −80° C. until required for purification. All purification steps were carried out at 4° C.

[3] = tested on: Arabidopsis transformed with TraP12 v2::dgt-14 (pDAB105528); assay: Postemergence glyphosate tolerance, visual injury; format: in vivo, Arabidopsis thaliana; details: 2 weeks after application

O=C(O)CNCP(=O)(O)O [glyphosate, N-(phosphonomethyl)glycine]
glyphosate concentration controlling non-transformed plants [1]: ≥ 280 g ae/ha | IC50 [2]: 9.98 mM | Visual % injury (Ave) ([3]; T2, 840 g ae/ha): 2.5% | Visual % injury (Ave) ([3]; T3, 840 g ae/ha): 0.0%

From patent US9873883B2, “Glyphosate resistant plants and associated methods” (Dow AgroSciences LLC, priority 2012, dated 2018)
